Assay results taken from patent US20100093018A1, “CELLS […] PROTEINS AND ASSAYS USING SUCH CELLS” (ACHILLION PHARMACEUTICALS, INC., priority 2007, published 2010).

Tests used:
BILN 2061^R (D168V) = assay: Susceptibility of BILN 2061 resistant replicon cell line; format: cell-based, hepatitis C virus; details: BILN 2061^R (D168V) versus Huh-9-13
[1] = system: Luc/NS3-4A^R(C16) replicon; assay: Fragment-cloned luciferase replicon susceptibility, C16 revertant; format: cell-based, hepatitis C virus
Excerpt: A third approach, fragment cloning, was used to reinforce the role of the C16S mutation and to exclude the role of other nonconsensus mutations in conferring resistant to ACH-806. A ˜3 kb fragment covering the coding region of NS3, NS4A, and part of NS4B was amplified by RT-PCR from total RNA isolated from ACH-806 resistant clone #28. The PCR product was cloned into the nonselectable replicon containing a luciferase reporter gene. Replicon RNA molecules were made from eight individual clones and were transfected into Huh-7 cells to determine the replication capacity by luciferase activity. From the eight clones, two were able to replicate efficiently and sequencing of the entire cloned fragment in these two clones confirmed the existence of C16S mutation in addition to other nonconsensus mutations. The serine at the amino acid residue of NS3 in one of these two clones was then converted back to cysteine using site-directed mutagenesis, leaving other nonconsensus mutations unchanged. The replication capacity of this resulting replicon [Luc/N3-4AR(C16)] was 95% that of its parent [Luc/N3-4AR(S16)] determined as previously described. After transfection into Huh-7 cells, the susceptibility of both replicons was compared. The reversion of serine back to cysteine at amino acid residue 16 of NS3 increased the susceptibility of the replicon to ACH-806 about 10 fold and maintained the susceptibility to other classes of HCV inhibitors (Table 3). Similar results were also obtained with a fragment containing NS3, 4A and part of 4B derived from a resistant cell line carrying A39V mutation (data not shown).

replicase complex = biological target: T1, replicase complex (Hepatitis C virus genotype 1b, UniProt Q9WMX2); assay: Replicase activity in treated replicon cells (FIG. 3); format: cell-based; details: 16 hour treatment of replicon cells, concentrations as low as 50 μM
T1 construct: expressed in transfected cells; host or cells: HCV replicon cells (Huh-7 derived)
T1 sequence (Q9WMX2 1658-1711 limits assumed): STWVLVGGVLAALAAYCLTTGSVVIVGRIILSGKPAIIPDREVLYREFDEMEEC
Excerpt: FIG. 3. ACH-806 is a potent inhibitor of functional replicase complex production.

NM107^R (S282T) = assay: Susceptibility of NM107 resistant replicon cell line; format: cell-based, hepatitis C virus; details: NM107^R (S282T) versus Huh-9-13
Luc/NS3-C16S replicon = assay: Luciferase replicon susceptibility, NS3 C16S; format: cell-based, hepatitis C virus
Protocol: To investigate the genetic basis of resistance to ACH-806 in the resistant replicon cellular lines, specifically the role of C16S and A39V in NS3, and 1585T 1 in NS5B, we introduced these mutations separately into a nonselectable replicon containing a luciferase reporter gene. Following the transfection of the parental replicon RNA molecule and the C16S, A39V and I585T variant replicon RNA molecules into Huh-7 cells, the replication capacity of all replicons was determined as described in Method and Materials. Replicon RNA carrying the A39V mutation replicated as efficiently as its parent, whereas the C16S and I585T mutations caused a slight decrease in the replication capacity (about 75% that of the parental replicon). The susceptibility of these four replicons to ACH-806 as well as to other classes of inhibitors was compared side by side, and the results are summarized in Table 2.

VX-950^R (A156T) = assay: Susceptibility of VX-950 resistant replicon cell line; format: cell-based, hepatitis C virus; details: VX-950^R (A156T) versus Huh-9-13

**Q.** How did the “Fold change in EC50” value (BILN 2061^R (D168V)) turn out when CCCCCOc1ccc(NC(=S)NC(=O)c2cccnc2)cc1C(F)(F)F [ACH-806, 1-nicotinoyl-3-(4-(pentyloxy)-3-(trifluoromethyl)phenyl)thiourea] was run?
**A.** 1.1

**Q.** And the “increase of susceptibility on reversion of serine to cysteine at residue 16 of NS3” value ([1]; C16 revertant versus S16 replicon)?
**A.** about 10 fold

**Q.** What about the EC50 ([1]; Hepatitis C virus) of the same compound?
**A.** 20 nM

**Q.** What about the EC90 ([1]; Hepatitis C virus) of the same compound?
**A.** 240 ± 10 nM

**Q.** And the “reduction of replicase activity” value (replicase complex)?
**A.** more than 50%

**Q.** And the “Fold change in EC50” value (NM107^R (S282T))?
**A.** 0.5

**Q.** And the “Fold change in potency, EC50” value (Luc/NS3-C16S replicon; Luc/NS3-C16S versus Luc/Parent replicon)?
**A.** 12

**Q.** And the “Fold change in potency, EC50” value (Luc/NS3-C16S replicon; {})?
**A.** 11.1 ± 1.0

**Q.** What about the “Fold change in potency, EC90” value (Luc/NS3-C16S replicon; {}) of the same compound?
**A.** 11.3 ± 0.9

**Q.** What about the “Fold change in EC50” value (VX-950^R (A156T)) of the same compound?
**A.** 0.6
